In patent publication US20260225997A1, “IONIZABLE AMINE LIPIDS” (Intellia Therapeutics, Inc., priority 2018, published 2026):

Key:
[1] = pKa measurement of unformulated amine lipid (fluorescence, method of Jayaraman et al.); format: physicochemical; conditions: 100 μM in 0.1 M phosphate buffer pH 4.5-9.0
Procedure: The pKa of each amine lipid was determined according to the method in Jayaraman, et al. (Angewandte Chemie, 2012) with the following adaptations. […] Lipid was diluted to 100 μM in 0.1 M phosphate buffer (Boston Bioproducts) where the pH ranged from 4.5-9.0. Fluorescence intensity was measured using excitation and emission wavelengths of 321 nm and 448 nm.

[2] = tested on: B2M; assay: B2M editing in mouse liver by NGS after i.v. LNP delivery of Cas9 mRNA and sgRNA; format: in vivo; conditions: CD-1 female mice; for Editing (%) of B2M in mouse liver: Example 52: LNP single dose 0.1 mg/kg i.v., sgRNA G650:Cas9 mRNA 1:1, NGS; for % Editing B2M in mouse liver: 7 days post-dose, G650 1:1
Procedure: Preparations of various LNP compositions were prepared with amine lipids. In assays for percent liver editing in mice, Cas9 mRNA and chemically modified sgRNA were formulated in LNPs, at either a 1:1 w/w ratio or a 1:2 w/w ratio. LNPs are formulated with a composition of a given ionizable lipid (e.g. an amine lipid), DSPC, cholesterol, and PEG-2k-DMG, with a 6.0 N:P ratio.
LNPs were administered to mice by a single dose at 0.1 mg/kg, unless otherwise noted and genomic DNA was isolated for NGS analysis as described below.
CD-1 female mice, ranging from 6-10 weeks of age were used in each study. Animals were weighed and grouped according to body weight for preparing dosing solutions based on group average weight. LNPs were dosed via the lateral tail vein in a volume of 0.2 mL per animal (approximately 10 mL per kilogram body weight). The animals were periodically observed post dose for adverse effects for at least 24 hours post dose. Animals were euthanized at 6 or 7 days by exsanguination via cardiac puncture under isoflurane anesthesia. Blood was collected into serum separator tubes or into tubes containing buffered sodium citrate for plasma as described herein. For studies involving in vivo editing, liver tissue was collected from each animal for DNA extraction and analysis.
Cohorts of mice were measured for liver editing by Next-Generation Sequencing (NGS).
In brief, to quantitatively determine the efficiency of editing at the target location in the genome, genomic DNA was isolated and deep sequencing was utilized to identify the presence of insertions and deletions introduced by gene editing.
PCR primers were designed around the target site (e.g., B2M), and the genomic area of interest was amplified. Additional PCR was performed according to the manufacturer's protocols (Illumina) to add the necessary chemistry for sequencing. The amplicons were sequenced on an Illumina MiSeq instrument. The reads were aligned to the […] after eliminating those having low quality scores. The resulting files containing the reads were mapped to the reference genome (BAM files), where reads that overlapped the target region of interest were selected and the number of wild type reads versus the number of reads which contain an insertion, substitution, or deletion was calculated.
The editing percentage (e.g., the “editing efficiency” or “percent editing”) is defined as the total number of sequence reads with insertions or deletions over the total number of sequence reads, including wild type.
CD-1 female mice were dosed i.v. at 0.1 mpk or 0.3 mpk. […] For animals dosed with G282 targeting TTR, blood and the liver were collected and serum TTR and editing were measured. For animals dosed with G650 targeting B2M, liver was collected and editing was measured.

[3] = LNP average particle size and polydispersity by dynamic light scattering (Malvern Zetasizer); format: physicochemical
Source text: The LNPs have a size of about 1 to about 1,000 nm, about 10 to about 500 nm, about 20 to about 500 nm, in a sub-embodiment about 50 to about 400 nm, in a sub-embodiment about 50 to about 300 nm, in a sub-embodiment about 50 to about 200 nm, and in a sub-embodiment about 50 to about 150 nm, and in another sub-embodiment about 60 to about 120 nm. Preferably, the LNPs have a size from about 60 nm to about 100 nm. The average sizes (diameters) of the fully formed LNP, may be measured by dynamic light scattering on a Malvern Zetasizer. The LNP sample is diluted in phosphate buffered saline (PBS) so that the count rate is approximately 200-400 kcps. The data is presented as a weighted average of the intensity measure.
The LNPs disclosed herein have a size (e.g. Z-average diameter) of about 1 to about 250 nm. In some embodiments, the LNPs have a size of about 10 to about 200 nm. In further embodiments, the LNPs have a size of about 20 to about 150 nm. In some embodiments, the LNPs have a size of about 50 to about 150 nm. In some embodiments, the LNPs have a size of about 50 to about 100 nm. In some embodiments, the LNPs have a size of about 50 to about 120 nm. In some embodiments, the LNPs have a size of about 60 to about 100 nm. In some embodiments, the LNPs have a size of about 75 to about 150 nm. In some embodiments, the LNPs have a size of about 75 to about 120 nm. In some embodiments, the LNPs have a size of about 75 to about 100 nm. Unless indicated otherwise, all sizes referred to herein are the average sizes (diameters) of the fully formed nanoparticles, as measured by dynamic light scattering on a Malvern Zetasizer. The nanoparticle sample is diluted in phosphate buffered saline (PBS) so that the count rate is approximately 200-400 kcps. The data is presented as a weighted-average of the intensity measure (Z-average diameter).
Dynamic Light Scattering (“DLS”) is used to characterize the polydispersity index (“pdi”) and size of the LNPs of the present disclosure. DLS measures the scattering of light that results from subjecting a sample to a light source. PDI, as determined from DLS measurements, represents the distribution of particle size (around the mean particle size) in a population, with a perfectly uniform population having a PDI of zero.
LNP compositions are analyzed for average particle size, polydispersity index (pdi), total RNA content, encapsulation efficiency of RNA, and zeta potential. LNP compositions may be further characterized by lipid analysis, AF4-MALS, NTA, and/or cryo-EM. Average particle size and polydispersity are measured by dynamic light scattering (DLS) using a Malvern Zetasizer DLS instrument. LNP samples were diluted with PBS buffer prior to being measured by DLS. Z-average diameter which is an intensity-based measurement of average particle size was reported along with number average diameter and pdi. A Malvern Zetasizer instrument is also used to measure the zeta potential of the LNP. Samples are diluted 1:17 (50 μL into 800 μL) in 0.1×PBS, pH 7.4 prior to measurement.

[4] = RNA encapsulation efficiency of LNP (Ribogreen fluorescence assay); format: physicochemical; conditions: N:P 6.0
Procedure: A fluorescence-based assay (Ribogreen®, ThermoFisher Scientific) is used to determine total RNA concentration and free RNA. Encapsulation efficiency is calculated as (Total RNA−Free RNA)/Total RNA. LNP samples are diluted appropriately with 1× TE buffer containing 0.2% Triton-X 100 to determine total RNA or 1× TE buffer to determine free RNA. Standard curves are prepared by utilizing the starting RNA solution used to make the compositions and diluted in 1× TE buffer+/−0.2% Triton-X 100. Diluted RiboGreen® dye (according to the manufacturer's instructions) is then added to each of the standards and samples and allowed to incubate for approximately 10 minutes at room temperature, in the absence of light. A SpectraMax M5 Microplate Reader (Molecular Devices) is used to read the samples with excitation, auto cutoff and emission wavelengths set to 488 nm, 515 nm, and 525 nm respectively. Total RNA and free RNA are determined from the appropriate standard curves.
Encapsulation efficiency is calculated as (Total RNA−Free RNA)/Total RNA. The same procedure may be used for determining the encapsulation efficiency of a DNA-based cargo component. For single-strand DNA Oligreen Dye may be used, and for double-strand DNA, Picogreen Dye.

[5] = tested on: TTR; assay: TTR editing in mouse liver by NGS after i.v. LNP delivery of Cas9 mRNA and sgRNA; format: in vivo; conditions: CD-1 female mice, 7 days post-dose; for Editing Mean % Indel: G282 1:1
Procedure, shortened: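 Cas9 mRNA and chemically modified sgRNA were co-formulated in LNPs made of an ionizable amine lipid, DSPC, cholesterol and PEG-2k-DMG at a 6.0 N:P ratio. CD-1 female mice aged 6-10 weeks received tail-vein injections of 0.2 mL. Liver genomic DNA was then amplified around the target site and sequenced on an Illumina MiSeq, with editing calculated as indel-containing reads over total reads.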

[6] = tested on: TTR; assay: Transthyretin (TTR) ELISA analysis of mouse serum after LNP dosing; format: in vivo; conditions: 7 days post-dose; for inhibition in vivo at 0.03 mg/kg: read-out: Serum TTR (% KD)
Procedure, shortened: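 Female CD-1 mice aged 6-10 weeks were grouped by body weight and given LNPs by lateral tail vein injection (0.2 mL per animal, about 10 mL per kilogram). Mice were bled by cardiac puncture under isoflurane into serum separator tubes. Serum was diluted 10,000-fold for the 0.1 mpk dose, and total TTR was quantified with a Mouse Prealbumin (Transthyretin) ELISA Kit following the kit directions.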

[7] = Table 3, Example 52: LNP, Cas9 mRNA + sgRNA (G650) 1:1 w/w, N:P 6.0
[8] = Table 26, Example 64: LNP, G282 1:1
[9] = Table 26, Example 64: LNP, G282 (TTR) 1:1 w/w
[10] = Example 64: Dose 0.03 mpk (table) i.v.
[11] = Example 64: Dose 0.03 mpk (table) i.v., G282 1:1
[12] = Mus musculus, iv, 168 h, Example 64: Dose 0.03 mpk (table) i.v., G282 1:1

Compound | pKa [1] | Editing (%) of B2M in mouse liver [2] [%] | Num Ave Size (nm) [3, 8] [nm] | PDI [3, 8] | Z-Ave Size (nm) [3, 8] [nm] | Encapsulation (%) [4, 9] [%] | Editing Mean % Indel [5, 10] [%] | Serum TTR [6, 11] [µg/mL] | inhibition in vivo at 0.03 mg/kg [6, 12] [%] | also measured
CCCCCCCCCOC(=O)CCCCCCCN(CCO)CCCCCCCC(OCCCCCCCCC)OCCCCCCCCC [Compound 2] | 6.23 | 17.7 |  |  |  |  |  |  |  | 
CCCCCCCCCCOC(CCCCCCCN(CCO)CCCCCCCC(=O)OCCCCCCCCC)OCCCCCCCCCC [Compound 3, nonyl 8-[8,8-didecoxyoctyl(2-hydroxyethyl)amino]octanoate] | 6.19 | 8.8 |  |  |  |  |  |  |  | Num Ave Size (nm) [3, 7]: 57.41 nm; PDI [3, 7]: 0.056; Z-Ave Size (nm) [3, 7]: 75.79 nm; Encapsulation (%) ([4]; Table 3, Example 52: LNP, Cas9 mRNA + sgRNA (G650) 1:1 w/w, Compound 19 50/9/38/3, others 50/10/38.5/1.5): 98%
CCCCCCCCCOC(=O)CCCCCCCN(CCO)CCCCCCCCCC(OCCCCCCC)OCCCCCCC [Compound 4, nonyl 8-[10, 10-diheptoxydecyl(2-hydroxyethyl)amino]octanoate] | 7.04 |  |  |  |  |  |  |  |  | % Editing B2M in mouse liver ([2]; Example 54: 0.1 mpk i.v.): 29%; % Editing B2M in mouse liver ([2]; Example 54: 0.3 mpk i.v.): 57%; Editing Mean % Indel ([5]; Example 61: 0.1 mpk i.v.): 46.7%; Serum TTR ([6]; Example 61: 0.1 mpk i.v., G282 1:1): 333 µg/mL; response vs control in vivo at 0.1 mg/kg ([6]; Mus musculus, iv, 168 h, Example 61: 0.1 mpk i.v., G282 1:1, read-out: Serum TTR % TSS): 26%
CCCCCCCCCOC(=O)CCCCCCCN(CCO)CCCCCCCCCC(OCCCCCCCC)OCCCCCCCC [Compound 5] | 7.08 | 13.2 |  |  |  |  |  |  |  | Editing % ([5]; Example 56: 0.1 mpk i.v., G282): 9%; Serum TTR ([6]; Example 56: 0.1 mpk i.v., G282): 738 µg/mL; Serum TTR (% TSS) ([6]; Example 56: 0.1 mpk i.v., G282): 92 % TSS
CCCCCCCCCOC(=O)CCCCCCCN(CCO)CCCCCCCCCC(OCCCCCCCCC)OCCCCCCCCC [Compound 6, 8-[10,10-di(nonoxy)decyl-(2-hydroxyethyl)amino]octanoate] | 6.3 | 8.2 |  |  |  |  |  |  |  | 
CCCCCCCCCOC(=O)CCCCCCCN(CCCCCCC(OCCCCCCCC)OCCCCCCCC)CCCNC(=O)OC [Compound 43, nonyl 8-((7,7-bis(octyloxy)heptyl)(3-((methoxycarbonyl)amino)propyl)amino)octanoate] | 6.02 |  | 56 | 0.05 | 74 | 94 | 8.6 | 619.2 | -8.1 | 
CCCCCCCCCOC(=O)CCCCCCCN(CCCCCCC(OCCCCCCCC)OCCCCCCCC)CCNC(=O)OC [Compound 44, nonyl 8-((7,7-bis(octyloxy)heptyl)(2-((methoxycarbonyl)amino)ethyl)amino)octanoate] | 5.62 |  | 92 | 0.25 | 185 | 59 | 7.9 | 603.9 | -5.5 | 
CCCCCCCCCOC(=O)CCCCCCCN(CCCCCCC(OCCCCCCCC)OCCCCCCCC)CCCNC(=O)NC [Compound 46, nonyl 8-((7,7-bis(octyloxy)heptyl)(3-(3-methylureido)propyl)amino)octanoate] | 7.64 |  | 86 | 0.03 | 104 | 98 | 8.7 | 514.6 | 10.1 | 
